# What was measured:
# Motilin receptor = Motilin receptor (Homo sapiens, UniProt O43193)
# Cannabinoid receptor 1 = Cannabinoid receptor 1 (Homo sapiens, UniProt P21554)
# Glucocorticoid receptor = target: T1, Glucocorticoid receptor (Homo sapiens, UniProt P04150)
# T1 sequence (P04150 whole entry): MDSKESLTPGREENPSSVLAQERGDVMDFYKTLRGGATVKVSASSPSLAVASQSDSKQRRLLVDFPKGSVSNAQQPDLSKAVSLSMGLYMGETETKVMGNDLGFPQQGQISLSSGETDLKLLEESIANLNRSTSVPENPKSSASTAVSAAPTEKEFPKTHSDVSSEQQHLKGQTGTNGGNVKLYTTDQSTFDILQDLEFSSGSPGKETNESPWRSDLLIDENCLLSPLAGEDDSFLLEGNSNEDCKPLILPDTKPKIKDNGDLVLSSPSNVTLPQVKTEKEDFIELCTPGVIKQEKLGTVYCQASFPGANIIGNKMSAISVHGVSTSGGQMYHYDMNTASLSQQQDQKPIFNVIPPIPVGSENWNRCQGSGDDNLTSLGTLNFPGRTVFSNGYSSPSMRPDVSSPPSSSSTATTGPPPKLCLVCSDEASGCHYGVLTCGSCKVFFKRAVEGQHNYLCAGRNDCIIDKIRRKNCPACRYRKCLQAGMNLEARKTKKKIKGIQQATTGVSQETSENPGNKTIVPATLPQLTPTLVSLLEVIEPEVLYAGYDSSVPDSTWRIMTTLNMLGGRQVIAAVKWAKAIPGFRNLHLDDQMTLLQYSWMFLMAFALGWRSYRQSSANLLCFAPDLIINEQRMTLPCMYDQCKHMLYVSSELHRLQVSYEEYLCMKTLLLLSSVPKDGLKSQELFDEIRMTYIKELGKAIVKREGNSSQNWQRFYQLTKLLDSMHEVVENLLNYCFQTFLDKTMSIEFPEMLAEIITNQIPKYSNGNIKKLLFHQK
# Thromboxane A2 receptor = target: T2, Thromboxane A2 receptor (Homo sapiens, UniProt P21731)
# T2 sequence (P21731 whole entry): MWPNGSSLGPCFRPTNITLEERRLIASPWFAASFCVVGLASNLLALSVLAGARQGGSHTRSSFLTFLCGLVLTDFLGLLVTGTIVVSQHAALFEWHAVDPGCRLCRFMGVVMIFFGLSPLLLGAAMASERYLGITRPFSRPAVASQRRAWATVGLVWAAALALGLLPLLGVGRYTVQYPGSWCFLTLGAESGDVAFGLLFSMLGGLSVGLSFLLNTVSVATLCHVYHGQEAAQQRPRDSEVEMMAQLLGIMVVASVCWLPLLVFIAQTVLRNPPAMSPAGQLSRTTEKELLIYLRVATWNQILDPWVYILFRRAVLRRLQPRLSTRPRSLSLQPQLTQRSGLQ
# [1] = target: Sodium-dependent serotonin transporter (Homo sapiens, UniProt P31645)
# [2] = target: 5-hydroxytryptamine receptor 2A (Homo sapiens, UniProt P28223); assay type: functional, cell-based
# Adenosine receptor A1 = target: T3, Adenosine receptor A1 (Homo sapiens, UniProt P30542)
# T3 sequence (P30542 whole entry): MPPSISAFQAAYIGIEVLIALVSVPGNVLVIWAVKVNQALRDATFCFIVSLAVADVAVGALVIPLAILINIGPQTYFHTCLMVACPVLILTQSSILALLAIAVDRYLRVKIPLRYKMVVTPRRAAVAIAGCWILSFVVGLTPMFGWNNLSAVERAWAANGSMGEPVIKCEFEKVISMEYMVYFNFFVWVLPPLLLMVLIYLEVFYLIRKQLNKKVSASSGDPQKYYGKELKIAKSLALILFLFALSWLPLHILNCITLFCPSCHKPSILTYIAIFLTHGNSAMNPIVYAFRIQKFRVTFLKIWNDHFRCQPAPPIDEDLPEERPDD
# [3] = target: T4, Equilibrative nucleoside transporter 1 (Homo sapiens, UniProt Q99808)
# T4 sequence (Q99808 whole entry): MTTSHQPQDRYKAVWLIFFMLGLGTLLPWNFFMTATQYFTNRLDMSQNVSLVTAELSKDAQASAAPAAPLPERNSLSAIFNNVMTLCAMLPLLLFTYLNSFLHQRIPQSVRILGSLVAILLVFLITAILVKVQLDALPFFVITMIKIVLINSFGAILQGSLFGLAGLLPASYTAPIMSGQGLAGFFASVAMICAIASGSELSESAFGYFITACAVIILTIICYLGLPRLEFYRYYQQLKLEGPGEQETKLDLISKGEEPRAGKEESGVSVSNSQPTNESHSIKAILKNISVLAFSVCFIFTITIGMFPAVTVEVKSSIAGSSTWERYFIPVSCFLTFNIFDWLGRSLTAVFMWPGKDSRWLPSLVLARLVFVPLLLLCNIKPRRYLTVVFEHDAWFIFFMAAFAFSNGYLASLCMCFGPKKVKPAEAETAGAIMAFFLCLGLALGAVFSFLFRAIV
# Histamine H3 receptor = Histamine H3 receptor (Homo sapiens, UniProt Q9Y5N1)
# Further: assay procedure not described here.
# 5-hydroxytryptamine receptor 2A, sequence (P28223 whole entry): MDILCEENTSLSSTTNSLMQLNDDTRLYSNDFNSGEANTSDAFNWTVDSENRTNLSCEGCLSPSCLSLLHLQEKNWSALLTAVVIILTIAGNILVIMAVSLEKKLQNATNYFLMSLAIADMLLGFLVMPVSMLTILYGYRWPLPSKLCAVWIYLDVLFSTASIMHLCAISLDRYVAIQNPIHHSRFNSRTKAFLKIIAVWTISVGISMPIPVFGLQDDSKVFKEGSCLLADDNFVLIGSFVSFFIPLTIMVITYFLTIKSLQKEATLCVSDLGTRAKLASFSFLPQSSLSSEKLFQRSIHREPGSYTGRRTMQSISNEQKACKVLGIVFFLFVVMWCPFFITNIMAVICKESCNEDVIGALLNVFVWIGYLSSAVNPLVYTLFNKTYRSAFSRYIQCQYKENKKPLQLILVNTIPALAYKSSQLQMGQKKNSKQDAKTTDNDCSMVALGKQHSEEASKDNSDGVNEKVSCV
# Sodium-dependent serotonin transporter, sequence (P31645 whole entry): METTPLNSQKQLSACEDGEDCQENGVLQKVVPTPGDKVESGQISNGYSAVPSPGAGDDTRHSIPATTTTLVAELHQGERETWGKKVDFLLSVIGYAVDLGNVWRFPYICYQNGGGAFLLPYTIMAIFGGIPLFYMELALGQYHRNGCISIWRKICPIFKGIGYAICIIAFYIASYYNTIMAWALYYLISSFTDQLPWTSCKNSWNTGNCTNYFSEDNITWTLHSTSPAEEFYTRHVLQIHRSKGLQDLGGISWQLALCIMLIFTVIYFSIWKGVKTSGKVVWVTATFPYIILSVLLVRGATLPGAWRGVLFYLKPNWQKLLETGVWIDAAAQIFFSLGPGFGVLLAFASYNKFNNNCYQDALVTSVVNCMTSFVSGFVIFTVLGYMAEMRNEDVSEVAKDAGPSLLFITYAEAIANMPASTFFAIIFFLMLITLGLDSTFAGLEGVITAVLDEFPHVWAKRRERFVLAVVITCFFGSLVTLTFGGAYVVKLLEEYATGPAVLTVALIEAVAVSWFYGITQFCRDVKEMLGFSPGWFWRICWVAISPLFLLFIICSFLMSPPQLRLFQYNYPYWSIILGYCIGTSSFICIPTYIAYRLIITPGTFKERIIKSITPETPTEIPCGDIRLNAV
# Histamine H3 receptor, sequence (Q9Y5N1 whole entry): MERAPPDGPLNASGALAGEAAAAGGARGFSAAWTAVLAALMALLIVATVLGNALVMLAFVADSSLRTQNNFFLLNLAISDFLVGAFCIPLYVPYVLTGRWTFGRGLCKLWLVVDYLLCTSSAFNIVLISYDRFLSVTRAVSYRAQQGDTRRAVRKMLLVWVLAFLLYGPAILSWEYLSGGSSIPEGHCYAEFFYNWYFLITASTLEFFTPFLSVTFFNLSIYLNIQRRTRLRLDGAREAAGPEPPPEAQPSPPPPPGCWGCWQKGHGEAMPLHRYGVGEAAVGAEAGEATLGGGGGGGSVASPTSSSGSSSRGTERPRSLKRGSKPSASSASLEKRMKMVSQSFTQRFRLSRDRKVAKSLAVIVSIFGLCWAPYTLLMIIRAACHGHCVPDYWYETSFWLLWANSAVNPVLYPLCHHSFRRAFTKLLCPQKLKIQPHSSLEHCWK
# Motilin receptor, sequence (O43193 whole entry): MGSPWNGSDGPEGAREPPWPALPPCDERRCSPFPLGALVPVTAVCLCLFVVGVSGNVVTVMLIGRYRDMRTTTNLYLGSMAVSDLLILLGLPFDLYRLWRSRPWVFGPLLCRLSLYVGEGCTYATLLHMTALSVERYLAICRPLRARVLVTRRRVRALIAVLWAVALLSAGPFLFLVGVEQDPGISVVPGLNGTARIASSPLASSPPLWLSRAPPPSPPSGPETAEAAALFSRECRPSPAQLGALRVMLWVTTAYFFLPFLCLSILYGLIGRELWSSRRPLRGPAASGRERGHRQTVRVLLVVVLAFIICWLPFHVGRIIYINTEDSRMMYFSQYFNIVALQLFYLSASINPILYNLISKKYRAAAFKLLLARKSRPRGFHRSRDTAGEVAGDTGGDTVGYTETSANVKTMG
# Cannabinoid receptor 1, sequence (P21554 whole entry): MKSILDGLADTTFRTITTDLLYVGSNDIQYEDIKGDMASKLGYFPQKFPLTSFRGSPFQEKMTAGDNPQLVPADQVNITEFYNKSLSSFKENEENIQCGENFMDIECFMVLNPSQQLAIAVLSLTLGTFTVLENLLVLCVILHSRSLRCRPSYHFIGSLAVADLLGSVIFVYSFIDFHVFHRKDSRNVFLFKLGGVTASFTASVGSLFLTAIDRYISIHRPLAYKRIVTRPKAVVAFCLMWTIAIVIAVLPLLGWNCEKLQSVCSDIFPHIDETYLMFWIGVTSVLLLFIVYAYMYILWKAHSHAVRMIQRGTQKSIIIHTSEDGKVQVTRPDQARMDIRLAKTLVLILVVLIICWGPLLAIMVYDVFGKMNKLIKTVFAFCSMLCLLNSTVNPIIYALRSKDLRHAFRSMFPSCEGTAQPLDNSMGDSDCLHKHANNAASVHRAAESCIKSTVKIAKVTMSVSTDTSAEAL
SMILES,AC50 (Motilin receptor) [µM],AC50 (Cannabinoid receptor 1) [µM],AC50 (Glucocorticoid receptor) [µM],AC50 (Thromboxane A2 receptor) [µM],AC50 [1] [µM],AC50 [2] [µM],AC50 (Adenosine receptor A1) [µM],AC50 [3] [µM],AC50 (Histamine H3 receptor) [µM]
O=C(O)CCn1c2c(c3ccccc31)C[C@H](NS(=O)(=O)c1ccc(F)cc1)CC2 [RAMATROBAN],> 30,> 10,> 30,0.0311,> 30,> 10,> 30,> 30,> 30
COCC1=C(C(=O)OC(C)OC(=O)OC(C)C)N2C(=O)[C@@H](NC(=O)/C(=N\OC)c3csc(N)n3)[C@H]2SC1 (some centres undefined) [CEFPODOXIME PROXETIL],–,–,–,–,–,> 30,> 30,–,–
O=C(Cn1ccnc1[N+](=O)[O-])NCc1ccccc1 [BENZNIDAZOLE],> 30,–,> 30,> 30,> 30,> 30,> 30,> 30,> 30

# Reference: ChEMBL document CHEMBL5291721, “A preclinical secondary pharmacology resource illuminates target-adverse drug reaction associations of marketed drugs” (Nat Commun, 2023)
